In patent US4837228A, “Antiinflammatory and antimicrobial compounds and compositions” (The University of Mississippi, priority 1982, dated 1989):
In brackets after ≈: the same amount, converted by molar mass. Entries after “also recorded” stand apart in the source; their conditions may differ. Where two headings read alike, the source gives them in different places.

Tests used:
[1] = test system: carrageenan-induced rat paw edema; assay: carrageenan-induced rat paw edema test, intraperitoneal dosing; format: in vivo; design: key to mean difference in volume (MDV): post-injection minus pre-injection mean paw volume; key to group mean difference score: post-injection minus pre-injection paw volume score; settings: for percent increase in paw volume / percent of control / mean difference in volume (MDV): Table 1; for group mean difference score / difference of mean scores versus vehicle control (Duncan's test) / difference of mean scores (Duncan's test): Table 3
Method: Two methods were used to assess the antiinflammatory activity of the compounds of the invention: the carrageenan-induced rat paw edema test and, the erythrocyte membrane stabilization assay.
In the Rat Paw Edema Test, the rats utilized were divided into test groups of six to eight animals, weighed and marked so that individual rats could be identified; one hour before testing all rats were given a 700 mg/kg intraperitoneal injection of ethyl urethane in distilled water to render them tractable during testing. A circle was drawn, with a felt-tipped marker, around the hind leg of each rat just above the ankle, and each rat was dosed with a test or control compound by intraperitoneal injection. Negative control groups received the vehicle; while positive control groups received a dose of phenylbutazone (PBZ) as shown in Table II. Test compounds were given at doses of 60, 120, 240 and 480 mg/kg. The positive controls were given at 120 mg/kg and 60 mg/kg. Phenylbutazone was prepared for injection by suspending it in normal saline using Tween 60. The rats were then held in group cages for 30 minutes. The volume of the left hind paw was measured using a mercury displacement pleysmograph. The paw is dipped into the mercury until the mercury touches the line above the ankle. Mercury is then withdrawn until the mercury returns to its original level. The amount of mercury removed is measured in milliliters (ml). The mercury can be measured accurately to 0.01 ml. This left hind paw was then injected with 0.1 ml of a 5% w/v solution of viscous carageenan in normal saline. The injection was given between the metatarsal bones using a 27 gauge needle, and the rats then held in group cages for 3 hours. The volume of the left hind paws was measured again in the pleysmograph. The results were computed in the following manner:
a. A mean is taken for both the pre-injection and post-injection paw volume of each test group.
b. The mean difference in volume (MDV) for each test group is computed by subtracting the pre-injection means from the post-injection mean.
c. The percent of control is computed for each test [formula] The percent of control is used to compare the efficacy of the various drug treatments.
d. The percent increase in paw volume is calculated for each group as: [formula] The percent increase is used to compare the amount of edma observed in one experiment to the amount of edma observed in other experiments.
The data from the rat paw test were further analyzed using a one-way analysis of varience (ANOVA) and Duncan's New Multiple Range Test. The pre-injection score of each animal was subtracted from his post-injection score and an analysis of the different scores were conducted.
The procedure described above was followed. […] The vehicle control used was Tween 60, Arlacel and distilled water prepared without CBC(II).

[2] = test system: erythrocyte (heat-induced hemolysis); assay: erythrocyte membrane stabilization assay (heat-induced erythrocyte hemolysis); format: cell-based
Outline: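 In vitro anti-inflammatory screen measuring stabilization of erythrocytes against heat-induced hemolysis, using 40% or 20% RBC suspensions. Compounds dissolved in physiologic saline or suspended in 2% ethanol in saline, pH adjusted to 7.4.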

[3] = test system: Bacillus subtilis; assay: MIC, two-fold (broth) serial dilution, B. subtilis; format: cell-based; settings: Bacillus subtilis, read-out: MIC
Outline: (§1)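 Qualitative: agar well diffusion. Quantitative: two-fold (broth) serial dilution → MIC. Inoculum = 1 loop-full, 1:10 dilution of 24-h broth culture in sterile water; fungi/M. smegmatis 48–72 h incubation. Controls: streptomycin sulfate (antibacterial), amphotericin B (antifungal).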

[4] = test system: Trichophyton mentagrophytes; assay: MIC, two-fold (broth) serial dilution, T. mentagrophytes; format: cell-based
Outline: as §1

[5] = test system: Staphylococcus aureus; assay: agar well diffusion assay, S. aureus; format: cell-based; settings: from edge of agar well
Method: (§2) Both qualitative and quantitative screens were performed. Qualitative screening was accomplished using the agar well diffusion assay technque while quantitative screening was accomplished by the two-fold (broth) serial dilution method to determine the minimum inhibitory concentration (MIC). Innoculation was accomplished with one loop-full of a 1:10 dilution of the 24-hour-old broth culture, (fungal cultures and M.smegmatis more often required 48 to 72 hours of incubation) of the test organisms in sterile water. Streptomycin sulfate was used as a positive control for antibacterial activity while amphitericin B was used as an antifungal positive control. Organisms utilized in the screens included gram-positive, gram-negative, and acid-fast bacteria as well as different types of fungi. […] An intermediate type activity is seen where R is hydrogen. However, where R is lengthened up to C15 a decrease in activity was noted. Total saturation of the two double bonds in the compounds having a methyl side chain lead, in most cases, to an increase in both antifungal and antibacterial activity.

[6] = test system: Escherichia coli; assay: agar well diffusion assay, E. coli; format: cell-based; settings: from edge of agar well
Method: as §2

[7] = test system: Pseudomonas aeruginosa; assay: agar well diffusion assay, Ps. aeruginosa; format: cell-based; settings: from edge of agar well
Method: as §2

[8] = test system: Trichophyton mentagrophytes; assay: agar well diffusion assay, T. mentagrophytes; format: cell-based; settings: one entry across 48 hr and 72 hr
Method: as §2

[9] = Rattus norvegicus, ip, read-out: inhibition of carrageenan-induced rat paw edema

CCCCCc1cc(O)c2c(c1)OC(C)(CCC=C(C)C)C=C2 (centres unmarked) [CBC (I), 2-methyl-2(4'methyl-pent-3'-enyl)-5-hydroxy-7-pentyl chromene]
inhibition at 120 mg/kg [1, 9]: 70% | inhibition at 240 mg/kg [1, 9]: 86% | inhibition at 480 mg/kg ([1]; Rattus norvegicus, ip, Table 5, 480 mg/kg i.p.): 100% | percent increase in paw volume ([1]; 120 mg/kg i.p.): 12.729% | percent of control ([1]; 120 mg/kg i.p.): 30.000% | mean difference in volume (MDV) ([1]; 120 mg/kg i.p., paw volume measured in ml): 0.139 | mean difference in volume (MDV) ([1]; 240 mg/kg i.p.): 0.004 | percent increase in paw volume ([1]; 240 mg/kg i.p.): 0.365% | percent of control ([1]; 240 mg/kg i.p.): 0.927% | mean difference in volume (MDV) ([1]; 480 mg/kg i.p.): -0.043 | percent increase in paw volume ([1]; 480 mg/kg i.p.): -3.708% | percent of control ([1]; 480 mg/kg i.p.): -9.189% | group mean difference score ([1]; 120 mg/kg): 0.139 | difference of mean scores versus vehicle control (Duncan's test) ([1]; 120 mg/kg, ** p 0.01): 0.324 | group mean difference score ([1]; 240 mg/kg): 0.004 | difference of mean scores versus vehicle control (Duncan's test) ([1]; 240 mg/kg, ** p 0.01): 0.458 | group mean difference score ([1]; 480 mg/kg): 0.043 | difference of mean scores versus vehicle control (Duncan's test) ([1]; 480 mg/kg, ** p 0.01): 0.505 | difference of mean scores (Duncan's test) ([1]; CBC 120 mg/kg versus CBC 240 mg/kg, * p 0.05): 0.134 | difference of mean scores (Duncan's test) ([1]; CBC 120 mg/kg versus CBC 480 mg/kg, ** p 0.01): 0.181 | difference of mean scores (Duncan's test) ([1]; CBC 120 mg/kg versus PBZ 120 mg/kg): 0.033 | difference of mean scores (Duncan's test) ([1]; CBC 240 mg/kg versus CBC 480 mg/kg): 0.047 | antiinflammatory effect in words ([1]; i.p.): strong antiinflammatory effects | significance of difference (ANOVA, Duncan's test) ([1]; i.p., difference scores, listed as CBC): The 120 mg/kg dose of CBC differed significantly from the 240 and 480 mg/kg doses of CBC; also recorded: the 480 mg/kg dose of CBC differed significantly from the 120 mg/kg dosage of PBZ | inhibition at 12.5 µM ([2]; Erythrocyte, Table 8, 1.25 × 10^-5 M): 55% | inhibition at 25 µM ([2]; Erythrocyte, Table 8, 2.5 × 10^-5 M, read-out: inhibition of heat-induced erythrocyte hemolysis): 67% | inhibition at 50 µM ([2]; Erythrocyte, Table 8, 5 × 10^-5 M): 79% | inhibition at 100 µM ([2]; Erythrocyte, Table 9 Test 2 (40% RBC), 1.0 × 10^-4 M, read-out: percent inhibition of heat-induced erythrocyte hemolysis): 40% | inhibition at 20 µM ([2]; Erythrocyte, Table 9 Test 2 (40% RBC), 2.0 × 10^-5 M, read-out: percent inhibition of heat-induced erythrocyte hemolysis): 26% | inhibition at 20 µM ([2]; Erythrocyte, Table 9 Test 3 (20% RBC), 2.0 × 10^-5 M, read-out: percent inhibition of heat-induced erythrocyte hemolysis): 26% | inhibition at 2 µM ([2]; Erythrocyte, Table 9 Test 3 (20% RBC), 2.0 × 10^-6 M, read-out: percent inhibition of heat-induced erythrocyte hemolysis): 7% | inhibition at 100 µM ([2]; Erythrocyte, read-out: inhibition of heat-induced erythrocyte hemolysis, Table 8, 1 × 10^-4 M): 98% | inhibition at 100 µM ([2]; Erythrocyte, read-out: percent inhibition of heat-induced erythrocyte hemolysis, Table 9 Test 3 (20% RBC), 1.0 × 10^-4 M): 37% | inhibition at 20 µM ([2]; Erythrocyte, 2×10^-5 M, read-out: inhibition of heat-induced red cell hemolysis): 26% | inhibition at 100 µM ([2]; Erythrocyte, 10^-4 M, read-out: inhibition of heat-induced red cell hemolysis): 35% | percent inhibition of heat-induced erythrocyte hemolysis ([2]; Table 9 Test 3 (20% RBC), 1.0 × 10^-4 M, 100 µM, listed as Cannabichromene): 33% | times more protective of red cell membranes than an equivalent amount of PBZ ([2]; actual activity, may have been): 3 to 30 times | MIC ([3]; 24 h): 0.39 µg/mL (≈ 1.24 µM) | MIC ([3]; 48 h): 0.78 µg/mL (≈ 2.48 µM) | MIC ([4]; 48 hr): 25.0 µg/mL (≈ 79.5 µM) | MIC ([4]; 72 hr): 50.0 µg/mL (≈ 159 µM) | MIC ([4]; Trichophyton mentagrophytes, 48 h, read-out: MIC): 25 µg/mL (≈ 79.5 µM) | MIC ([4]; Trichophyton mentagrophytes, 72 h, read-out: MIC): 50 µg/mL (≈ 159 µM) | width of inhibition zone ([5]; 24 hr): 10. mm | width of inhibition zone ([5]; 48 hr): 10. mm | width of inhibition zone ([6]; 24 hr): 5. mm | width of inhibition zone ([6]; 48 hr): 5. mm | width of inhibition zone ([7]; 24 hr): 1. mm | width of inhibition zone ([7]; 48 hr): 1. mm | agar well diffusion result in words [8]: No growth
